Measurements from US11433053B2, “LSD1 inhibitor and preparation method and application thereof” (CSPC ZHONGQI PHARMACEUTICAL TECHNOLOGY (SHIJIAZHUANG) CO., …, priority 2017, dated 2022).

Tests used:
human LSD1 = human LSD1 (Homo sapiens (Human), UniProt O60341); assay: Evaluation of enzyme activity: LSD1 fluorescence coupling enzyme assay (HRP/Amplex Red); assay type: biochemical; settings: human LSD1, histone H3(1-21)K4me2 peptide 10 μM, 30 min pre-incubation
In short: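 Human LSD1 preincubated 30 min with compound, then reacted with H3(1-21)K4me2 peptide (10 μM). FAD-dependent H2O2 detected via HRP/Amplex Red fluorescence (Ex/Em 535/590). Ten-dose, 3-fold dilutions in duplicate from 10 μM gave IC50s, binned into activity classes.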

[1] = test system: human small cell lung cancer NCI-H1417 cells subcutaneous xenograft tumor; assay: In vivo pharmacodynamic study, NCI-H1417 subcutaneous xenograft tumor CB-17 SCID mouse model; set-up: species or system CB-17 SCID mice; settings: PO, QD
Method: The purpose of this experiment was to investigate the efficacy of some of the compounds of the present invention in the in vivo xenograft tumor of human small cell lung cancer NCI-H1417 cells in a CB-17 SCID mouse model.
Week age and weight: 6-8 weeks old, weight 18-23 g
Human small cell lung cancer NCI-H1417 cells were cultured in vitro in a single layer cultured in RPMI-1640 medium (Sigma-aldrich, R0883), supplemented with 10% fetal bovine serum and cultured at 37° C. 5% CO2. When the cell saturation is 80%-90%. The cells are harvested, counted, and inoculated.
0.2 mL of 10×10^6 (NCI-H1417 cells were subcutaneously inoculated into the right back of each mouse (PBS:Matrigel=1:1). After 21 days of tumor inoculation, group administration was started when the average volume reached 107 mm^3.
The experimental solvent was the 10% hydroxypropyl-β-cyclodextrin solution. The preparation method was as follows: 100 g of hydroxypropyl-β-cyclodextrin was weighed into a 1000 mL jar, 800 mL of ultrapure water was added, stirred overnight until completely dissolved, and then made up to 1000 mL. The test substance was dissolved in a solvent, and was prepared into a uniform solution of a certain concentration and stored at 4° C.
The experimental indicator is to investigate whether tumor growth is inhibited, delayed or cured. Tumor diameters were measured twice a week using vernier calipers. The tumor volume is calculated as: V=0.5a×b^2, and a and b represent the long and short diameters of the tumor, respectively.
The antitumor effect of the compound was evaluated by TG (%). TGI (%), reflecting the tumor growth inhibition rate. TGI (%) calculation: TGI (%)=[1−(the average tumor volume at the end of a treatment group−the average tumor volume at the beginning of the treatment group)/(the average tumor volume at the end of the treatment of the solvent control group−The average tumor volume at the start of treatment in the solvent control group) was ×100%. Solvent control: Vehicle (10% hydroxypropyl-β-cyclodextrin solution).

hERG potassium channel = hERG potassium channel (Homo sapiens (Human), UniProt Q12809); assay: Assay on inhibiting hERG potassium channel (automatic patch clamp, CHO-hERG cells); assay type: cell-based; settings: Qpatch, max test concentration 40 μM
Method: Experimental purpose: Using automatic patch clamp method to detect the effect of the sample to be tested on hERG potassium channel.
4.1.1 CHO-hERG cells were cultured in 175 cm^2 flasks. When the cell density was increased to 60-80%, the culture solution was removed and the resultant was washed with 7 mL PBS (Phosphate Buffered Saline phosphate buffer), then 3 mL of digestive juice was added to digest.
4.1.2 After the digestion finished, 7 mL culture solution was added to neutralize. Then centrifuge, aspirate the supernatant, and then resuspend by adding 5 mL culture solution to ensure a cell density of 2-5×10^6/mL.
Single cell high impedance sealing and whole cell pattern formation were all done automatically by the Qpatch instrument. After the whole-cell recording mode was obtained, the cells were clamped at −80 mV. 50-Millisecond−50 mV preamplifier was applied prior to a 5 second+40 mV depolarization stimulus. Then the voltage was repolarized to −50 mV for 5 seconds and back to −80 mV. This voltage stimulation was applied every 15 seconds, and the extracellular fluid was recorded over 5 minutes after 2 minutes' record, and then the administration process was started. The compound concentration was started from the lowest test concentration, and each test concentration was given for 2.5 minutes. Test at least 3 cells (n≥3) for each concentration.
4.4.1 Dilute 20 mM mother liquor of the compound with extracellular fluid 5 μL of 20 mM mother liquor of the compound was added to 2495 μL extracellular fluid, and the mixture was 500-fold diluted to 40 μM. Then 0.2% DMSO in extracellular fluid was 3-fold diluted sequentially to obtain the final concentration to be tested.
4.4.2 The max test concentration was 40 μM, 6 concentrations were 40, 13.33, 4.44, 1.48, 0.49, and 0.16 μM respectively.
Experimental data was analyzed by XLFit software.

H1417 cells = assay: Cell proliferation inhibitory activity on H1417 cells (CellTiter-Glo, 10 days); assay type: cell-based, human; settings: Homo sapiens; for IC50: NCI-H1417, 240 h, H1417 cells, 10 days incubation; for Emax: NCI-H1417, H1417 cells, highest percentage inhibition of cell viability, read-out: Maximum inhibition percentage (%)
In short: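 H1417 cells in RPMI 1640 with fetal bovine serum were treated with 10-point 3-fold compound dilutions for 10 days. Viability was read by CellTiter-Glo luminescence. IC50 came from a four-parameter fit of percent inhibition, and maximal inhibition was also categorized.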

[2] = 1.5 mg/kg, day 27 after administration
[3] = 1.5 mg/kg, day 28 after administration
[4] = 5 mg/kg, day 28 after administration

Sequence of hERG potassium channel (Q12809 whole entry): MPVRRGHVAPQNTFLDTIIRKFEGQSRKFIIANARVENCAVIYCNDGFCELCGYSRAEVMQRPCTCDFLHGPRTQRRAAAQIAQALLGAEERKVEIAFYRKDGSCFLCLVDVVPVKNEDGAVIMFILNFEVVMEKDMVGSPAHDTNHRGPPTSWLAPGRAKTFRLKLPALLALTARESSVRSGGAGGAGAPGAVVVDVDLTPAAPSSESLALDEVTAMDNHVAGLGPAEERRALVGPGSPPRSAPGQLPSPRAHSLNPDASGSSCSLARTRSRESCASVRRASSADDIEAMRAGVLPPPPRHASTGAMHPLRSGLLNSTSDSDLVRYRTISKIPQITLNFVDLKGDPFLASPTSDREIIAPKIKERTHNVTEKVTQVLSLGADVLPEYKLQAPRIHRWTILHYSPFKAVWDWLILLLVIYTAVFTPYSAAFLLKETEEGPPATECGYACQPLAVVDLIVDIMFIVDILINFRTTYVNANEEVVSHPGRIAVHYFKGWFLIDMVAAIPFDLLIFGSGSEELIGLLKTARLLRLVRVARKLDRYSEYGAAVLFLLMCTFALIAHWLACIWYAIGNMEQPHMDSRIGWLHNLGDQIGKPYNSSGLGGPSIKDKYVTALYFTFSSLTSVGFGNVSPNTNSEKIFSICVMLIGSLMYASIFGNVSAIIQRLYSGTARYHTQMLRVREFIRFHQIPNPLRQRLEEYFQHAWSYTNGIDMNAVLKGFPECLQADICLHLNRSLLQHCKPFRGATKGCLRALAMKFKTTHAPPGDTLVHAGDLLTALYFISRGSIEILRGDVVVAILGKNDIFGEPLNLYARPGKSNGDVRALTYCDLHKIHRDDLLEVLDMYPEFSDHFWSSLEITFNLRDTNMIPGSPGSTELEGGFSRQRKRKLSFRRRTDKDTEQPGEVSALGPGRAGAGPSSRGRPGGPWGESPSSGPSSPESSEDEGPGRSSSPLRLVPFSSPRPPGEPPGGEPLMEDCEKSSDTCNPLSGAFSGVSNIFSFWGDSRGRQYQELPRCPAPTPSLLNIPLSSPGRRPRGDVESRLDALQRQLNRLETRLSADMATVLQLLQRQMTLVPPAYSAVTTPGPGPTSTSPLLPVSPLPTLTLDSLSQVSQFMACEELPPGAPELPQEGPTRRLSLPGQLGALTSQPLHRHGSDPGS

Row | IC50 (human LSD1) | IC50 (H1417 cells) | Compound | TGI (%) [1, 2] | Tumor volume (mm^3) (Day 27) [1, 2] | IC50 (hERG potassium channel) | Emax (H1417 cells) | TGI (%) [1, 3] | Tumor volume (mm^3) (Day 28) [1, 3] | TGI (%) [1, 4] | Tumor volume (mm^3) (Day 28) [1, 4]
1 | ≤ 50 nM | 100 to 500 nM | N[C@H]1CC[C@H](c2nc(C3(CN[C@@H]4C[C@H]4c4ccccc4)CC3)no2)CC1 [Example 144] | 83.5% | 180 ± 21 mm^3 | > 40000 nM | 90 to 100% |  |  |  | 
2 | ≤ 50 nM | 100 to 500 nM | N[C@H]1CC[C@@H](c2nc(C3(CN[C@@H]4C[C@H]4c4ccccc4)CC3)no2)CC1 [Example 145] | 66.6% | 250 ± 40 mm^3 | > 40000 nM | 70 to 90% |  |  |  | 
3 | ≤ 50 nM | ≤ 100 nM | N[C@H]1CC[C@H](c2cc(C3(CN[C@@H]4C[C@H]4c4ccccc4)CC3)no2)CC1 [Example 241] |  |  | > 40000 nM | 70 to 90% | 66% | 251 ± 35 mm^3 | 110% | 61 ± 10 mm^3
